Publication PMC10799292, “The Role of β-Defensin 1 Against Porphyromonas gingivalis Lipopolysaccharide-Mediated Inflammation in the THP-1 Cell Line” (Cureus, 2023)
No end group written: not given here.

Columns and labels:
Format in all cases: cell-based, human
THP-1 cells [1] = test: Apoptosis by flow cytometry (Annexin V & Dead Cell); settings: β-defensin 1 22.62 ng/mL 24 h after Pg-LPS 1 µg/mL; untreated control 87.25%
Experimental: Untreated control and Pg-LPS treated wells were also maintained. To the tubes, 100 μL of the Muse™ Annexin V & Dead Cell Reagents were added separately. The tubes were completely mixed by pipetting up and down or spinning at a medium speed for three to five seconds, followed by 20 minutes of incubation in the dark at room temperature. The cells were examined with a Flow Cytometer, gated against untreated control cells, and evaluated for apoptosis with the Muse FCS 3.0 software.
The Muse Annexin V & Dead Cell Kit is a method to analyze cells in various stages of apoptosis, where fluorescently labeled Annexin V binds to phosphatidylserine (PS), which translocates to the outer surface of the cell membrane upon the onset of apoptosis. 7-AAD is excluded from live and healthy cells and permeates late-stage apoptotic and dead cells. […] The result is depicted in Figure 9.

MPO = test: Myeloperoxidase (MPO) activity in lysate of Pg-LPS stimulated THP-1 cells; settings: for MPO Enzyme activity Average / MPO Enzyme activity 1 / MPO Enzyme activity 2: Pg-LPS 1 µg/mL, 24 h; for MPO Enzyme activity Average: mean of duplicates; for MPO Enzyme activity 1: replicate 1; for MPO Enzyme activity 2: replicate 2
Experimental: For inducing differentiation of THP-1 cells into macrophages, the cell line was premixed with 25 ng/mL PMA and incubated for 48 hours. After incubation, 5x10^4 cells were activated with Pg-LPS (LPS: 1 µg/mL) for one hour. Pg-LPS stimulated cells were exposed to different concentrations (6.25, 12.5, and 25 ng/mL) of β-defensin 1 and incubated for 24 hours. After incubation, the following anti-inflammatory assays were conducted utilizing the cell lysate.
Cell lysate was homogenized in hexadecyltrimethyl ammonium bromide (HTAB) and potassium phosphate buffer. The samples were centrifuged at 2000g for 30 minutes at 4°C and the activity of myeloperoxidase (MPO) enzyme was measured with the supernatant. MPO in the sample was stimulated by adding 50 mM phosphate buffer (pH 6) containing 1.67 mg/mL guaiacol and 0.0005% hydrogen peroxide. The absorbance change at […] was determined. The MPO activity (U) was shown as units per milliliter of cell lysate. At 25 °C, one unit of MPO activity corresponds to the degradation of 1µM peroxide per minute.
where ΔOD is the density change, Vt is the total volume (mL) (1.1 mL ), L is the light path (1 cm), and £470 is the extinction coefficient for tetraguaiacol (26.6 mM^-1·cm^-1).

[2] = system: THP-1 differentiated macrophage cell line; test: Cytotoxicity evaluation of β-defensin 1 by MTT method; settings: 24 h, 12.5-200 ng/mL
Experimental: (§1) The THP-1 cell line was cultured in DMEM and supplemented with 10% FBS, sodium bicarbonate, L-glutamine, and an antibiotic solution containing penicillin (100 U/mL), amphotericin B (2.5 µg/mL), and streptomycin (100 µg/mL). The cells were maintained in a 5% humidified CO2 incubator (NBS Eppendorf, Germany) at 37°C. To induce differentiation into macrophages, the THP-1 cell line was treated with 25 ng/mL phorbol 12-myristate 13-acetate (PMA) (cat. 91585, Sigma-Aldrich, USA) and incubated for 48 hours. Following incubation, the cells were seeded in a 96-well culture plate at a density of 5x10^4 cells/well and incubated for 24 hours in a humidified 5% CO2 incubator at 37°C.
(§2) Inverted phase contrast microscopy (IPCM) using an Olympus CKX41 microscope (Olympus, Japan) equipped with an Optika Pro5 CCD camera (Optika, Italy) was utilized to directly observe the cells. Cell viability was determined using the MTT (3-(4,5-Dimethylthiazol-2-yl)-2,5-diphenyltetrazolium bromide) assay (Sigma, M-5655). […] The absorbance of this colored solution can be quantified by measuring at approximately 570 nm using a spectrophotometer.
(§3) The whole plate was analyzed under a microscope with an IPCM, and the results were photographed. […] The purple formazan crystals were dissolved in dimethyl sulfoxide (DMSO) and the absorbance (OD) was measured at 570 nm using a microplate reader. […]

[3] = system: Pg-LPS stimulated THP-1 cells; test: Cytotoxic evaluation of β-defensin 1 against Pg-LPS-treated THP-1 cells (MTT); settings: β-defensin 1 at 260.85 ng/mL, 24 h, triplicates
Experimental: as §1, §2, §3

THP-1 cells [4] = test: Cell cycle distribution by flow cytometry; settings: co-treated with β-defensin 1, Pg-LPS stimulated
Experimental: Untreated control and Pg-LPS stimulated cells were also maintained. The MUSE Cell Cycle Kit was added, and the manufacturer's instructions were followed.

## β-defensin 1: β-Defensin 1 peptide was purchased from ThermoFisher Scientific, USA; cationic antimicrobial peptide (DHYNCVSSGGQCLYSACPIFTKIQGTCYRGKAKCCK; ends and bridges not checked; cysteine pairing not given here; UniProt P60022 33-68, looked up)
THP-1 cells [1]
  live cells: 77.35%
MPO; 6.25 ng/mL
  MPO Enzyme activity Average: 0.02795 U/mL
  MPO Enzyme activity 1: 0.0278 U/mL
  MPO Enzyme activity 2: 0.0281 U/mL
MPO; 12.5 ng/mL
  MPO Enzyme activity Average: 0.021 U/mL
  MPO Enzyme activity 1: 0.0209 U/mL
  MPO Enzyme activity 2: 0.0211 U/mL
MPO; 25 ng/mL
  MPO Enzyme activity Average: 0.01515 U/mL
  MPO Enzyme activity 1: 0.0152 U/mL
  MPO Enzyme activity 2: 0.0151 U/mL
MPO; 6.25, 12.5, and 25 ng/mL, Pg-LPS stimulated
  MPO enzyme activity (in words): decreased in a concentration-dependent manner
[2]
  cytotoxicity (in words): dose-dependent cytotoxicity
[3]; Pg-LPS (1 h) up to 1 µg/mL
  viability (in words): increased the viability of THP-1 cells
[3]; Pg-LPS beyond 1 µg/mL
  viability (in words): decrease in viability
THP-1 cells [4]
  arrest in the G0/G1 phase (in words): reduced
